# Reference: patent US20120225097A1, “PIPERAZINECARBOXAMIDE DERIVATIVE USEFUL AS A MODULATOR OF FATTY ACID AMIDE HYDROLASE (FAAH)” (priority 2009, published 2012)
# Where a name gives a salt, the structure may show the parent alone.
# Tested on: heart muscle
# Assay: Assay Method 4: rat screening toxicity protocol
# Format: in vivo
# Conditions: 300 mg/kg daily oral, up to 4 days, male rats
# Method: Rat Screening Toxicity Protocol
# Male Crl:CD® (SD) rats approximately 8 weeks of age and weighing approximately 200 to 350 grams at initiation of dosing, were supplied by Charles River Laboratories, Hollister, Calif. Rats were individually housed in solid bottom plastic cages with 0.25 inch Cobb Bedding. Study rooms were maintained on a 12-hour light/dark cycle, with a temperature range of 64 to 79° F., and a relative humidity range of 30 to 70%. Rats were fed ad libitum (except where noted) with Rodent Diet 5008 supplied by PMI® Nutrition International, Richmond, Ind. Water was provided ad libitum by an automatic watering system and/or water bottles. The animals were quarantined for at least 5 days (prior to treatment period). Rats were selected on the basis of predose evaluations and randomly assigned to groups using a computer-generated randomization method based on body weight.
# A vehicle treated group was dosed to match the highest dose volume (mL/kg) used. The test compound was administered orally daily. Test compounds were stored at room temperature. 4-({3-[(4-chlorophenyl)oxy]phenyl}methyl)-N-pyridin-3-ylpiperazine-1-carboxamide was dosed in solution using 20% cyclodextrin as the vehicle. N-pyridin-3-yl-4-{3-[4-(trifluoromethyl)phenoxy]benzyl}piperazine-1-carboxamide bis-hydrochloride dihydrate was dosed in solution using water as the vehicle. Rats in the vehicle treated and test article treated were dosed for up to 4 days. Mortality checks were performed at least once a day on all animals pre-dose and post-dose. Clinical observations were performed at least once during the pre-dose period. Clinical observations were recorded prior to dosing, at least once after daily dosing, and prior to scheduled necropsy for animals assessed for toxicology. Body Weights were determined at least once during the pre-dose period, prior to the first dose, once during dose administration and once after the last dose, and once prior to necropsy for tissue body weight ratios. […] Observations were recorded at necropsy and tissue trimming. […] Clinical pathology was not determined on these animals. […]
Compound,"lesions in heart muscle (listed as N-pyridin-3-yl-4-{3-[4-(trifluoromethyl)phenoxy]benzyl}piperazine-1-carboxamide , bis-hydrochloride dihydrate)","lesions in heart muscle (listed as N-pyridin-3-yl-4-{3-[4-(trifluoromethyl)phenoxy]benzyl}piperazine-1-carboxamide, bis-hydrochloride dihydrate)",lesions in heart muscle
"O=C(Nc1cccnc1)N1CCN(Cc2cccc(Oc3ccc(C(F)(F)F)cc3)c2)CC1 [Example 1, N-Pyridin-3-yl-4-{3-[4-(trifluoromethyl)phenoxy]benzyl}piperazine-1-carboxamide, bis-hydrochloride dihydrate]",absent,lacked such lesions,
O=C(Nc1cccnc1)N1CCN(Cc2cccc(Oc3ccc(Cl)cc3)c2)CC1 [4-({3-[(4-Chlorophenyl)oxy]phenyl}methyl)-N-pyridin-3-ylpiperazine-1-carboxamide],,,developed lesions in heart muscle
